Source: patent US10718770B2, “Methods for screening compounds for treating or preventing a viral infection or a virus-related condition” (ABIVAX, priority 2015, dated 2020)

Key:
[1] = Lymphocyte populations in engrafted humanized mice treated for 30 days; type: in vivo; details: one month, 20 mg/kg or 40 mg/kg, compared to controls without treatment
Protocol: (§1) FIG. 7. Efficacy of Compound 1 to inhibit viral replication in humanized mice. A) Reconstituted SCID mice were infected with JRCSF HIV-1 strain by intraperitoneal injection. Control group received by gavage labrafil and 5% DMSO (n=15) and treated group 20 mg/kg b.i.d of Compound 1 in labrafil and 5% DMSO (n=14) for 15 days. Two independent experiments were performed with 5 and 10 reconstituted mice for each group. Viral load was assessed by measuring viral RNA using the Amplicor HIV-1 Monitor from Roche. B) FACS analysis was performed on peritoneal wash at day 15 post-treatment to assess the CD8/CD4 ratio. C) Engrafted NSG humanized mice were treated by oral gavage with Compound 1 at either 20 mg or 40 mg/kg once a day for 30 days and indicated lymphocyte populations (CD45+; CD4+ and CD8+) were monitored by FACS analysis. […] Viral load was assessed by measuring viral RNA using the Amplicor HIV-1 Monitor from Roche. […]
(§2) Briefly, newborn (<5 days old) NSG mice received sub-lethal (1 Gy) total body irradiation with a Cs source, and then received […] transduced or untransduced CD34+ human HSCs using a 50 μl Hamilton syringe via the intrahepatic (i.h.) route. […] Mice were monitored three times a week for symptoms or signs of adverse events, according to a standard score sheet. […]

[2] = tested on: HIV-1 strain YU2; test: HIV-1 p24 production in infected monocyte derived-macrophages; type: cell-based; details: Human immunodeficiency virus 1, Primary macrophage, read-out: inhibition levels of virus replication (p24)
From the text: FIG. 5. Potency of indole derivatives to inhibit HIV-1 production in PBMC- and macrophages-infected cells. A) HIV-1 strain Ada-MR5 was used to infect triplicate of activated PBMCs from different donors (stimulated for two days with PHA and IL2) in the absence or presence of increasing concentrations of Compound 1. Supernatant was harvested 6 days post-infection (pi) and viral capsid protein p24 antigen was quantitated using standard ELISA protocol. Each point represents 6 donors. B) HIV-1 strain YU2 was used to infect triplicate of monocyte derived-macrophages from different donors in the absence or presence of increasing concentrations of Compound 1. Supernatant was harvested 8 days pi and viral capsid protein p24 antigen was quantitated using standard ELISA protocol. Each point represents 8 donors.
To generate monocyte derived macrophages (MDMs), monocytes were isolated using CD14 microbeads (catalog no. 130-050-201; Miltenyi) and cultured in X-VIVO10 medium (Lonza) supplemented with GM-CSF 1000 U/ml and M-CSF 100 ng/ml for 6 days. Monocytes were seeded at a cell count of 50′000 cells per well in a 96 well plate. After 6 days medium was replaced with X-VIVO10 w/o Cytokines. […]
Cells were treated with 0.01 μM up to 30 μM and p24 antigen levels were monitored in culture supernatant over a 12 day period. […]

[3] = tested on: YU2 HIV-1 virus; test: Humanized mice infected with YU2 HIV-1 virus, viral load; type: in vivo, mouse (NSG humanized); details: after 30 days of 40 mg/kg daily
Protocol: as §1, §2

FC(F)(F)Oc1ccc(Nc2ccc3cccc(Cl)c3n2)cc1 [Compound 1, 8-chloro-N-(4-(trifluoromethoxy)phenyl)quinolin-2-amine]
engraftment values of CD45+ cells and ratio of CD8+/CD4+ [1]: neither alters engraftment values of CD45+ cells nor the ratio of CD8+/CD4+
inhibition at 0.1 µM [2]: ≤ 90%
time the viral load remained low after treatment termination [3]: at least 50 days
